Source: patent US20170184612A1, “USE OF LEUKOCYTES AND NOVEL BIOMARKERS IN THE DIAGNOSIS, CONFIRMATION, AND TREATMENT OF A NEUROLOGICAL DISORDER” (The Trustees of Columbia University in the City of New York, priority 2014, published 2017)

How the values were obtained:
Type in all cases: cell-based, human
[1] = tested on: peripheral blood mononuclear cells (PBMC), T cells; assay: ELISpot assay, gamma-interferon release (SFC) after stimulation with a-synuclein epitope pools; details: for Pool +: IFNg, Pool Stimulated, number of donors with a positive response, Donors tested 1; for IFNg Peptide + (donors positive to the peptide): of donors tested (peptide); for IFNg Peptide +: number of donors positive to the single peptide
How it was run: (§1)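 Ficoll-isolated PBMC, PD vs age-matched controls, blinded; peptide pools (122 candidates + pS129 epitopes), 22 h, 37 C. Positive pools deconvoluted.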

[2] = tested on: peripheral blood mononuclear cells (PBMC), T cells; assay: ELISpot assay, IL-5 release (SFC) after stimulation with a-synuclein epitope pools; details: for IL-g Peptide + (donors positive to the peptide): of donors tested (peptide); for IL-g Peptide +: number of donors positive to the single peptide
How it was run: as §1

[3] = tested on: peripheral blood mononuclear cells (PBMC), T cells; assay: ELISpot assay, IFNg and IL-5 reactivity combined, T cell response to α-syn epitopes; details: PD patients, region including Y39
Protocol: Blood from age matched controls and PD patients were obtained and mononuclear cells were isolated by gradient centrifugation.
Release of the cytokines gamma-interferon, which measures activation of CD4+ and/or CD8+ T cells, and the interleukin, IL-5, which measures activation of CD4+ T cells was measured by ELISpot assay. […] After 22 hours of stimulation at 37 C, the cells were removed and release of cytokines was measured by colorimetric detection of spot-forming cells (SFC). Confirmed release of cytokine is determined by the presence of a minimum of 20 SFC per million cells.
The binding algorithms in SubAim 1 predict how well the peptides would bind to MHC if present, but not if they are present in patients. To determine this, the presence of T cell response against the candidate antigens by patient blood-derived peripheral blood mononuclear cells (PBMC) is assessed by ELISPOT assays upon stimulation with the peptides. This assay detects and quantifies cytokine release (in this case, IFNγ and IL-5) from specific activated T cells.
Data were obtained from blood samples (25 ml) from 44 PD patients and 24 age-matched controls. The experiments were conducted blindly. PBMCs from these samples were isolated and exposed to pools comprising the 122 candidate class I and class II antigens and phosphorylated S129 epitopes generated in Subaim 1. For the PBMCs responsive to the pooled peptides, the response was then deconvoluted to identify individual epitopes.
PMBC fractions are recovered by standard methods with Ficoll gradient and T cells expansion (Oseroff et al., 2010). The methods for the analysis of T cell reactions and measurement of cytokines production using the enzyme-linked immunosorbent spot (ELISPOT) assay are published in analogous experiments to discover antigens in multiple sclerosis (Lolli et al., 2013) and in hay fever allergens (Oseroff et al., 2010). T cell responses are determined by measuring IFNγ and IL-5 release by ELISPOT. Statistical analysis of differences between populations is expected to be non-parametric and analyzed with the U-Mann-Whitney test. If there were a normal distribution of response, which is a priori unlikely as some patients have no T cell response, with an SD=1, 8 patients per group would be required to provide a p>90% that the study detect a >2 fold difference at a two-sided 0.05 significance level.

[4] = Patients Summary, PD patients, single peptide
[5] = second 'Pool Stimulated' section (from r296), 12 donors tested
[6] = peptide + / donors tested (peptide), second 'Pool Stimulated' section (from r296), 12 donors tested
[7] = single peptide, second 'Pool Stimulated' section (from r296), 12 donors tested

Substance | Pool + [1] | IFNg Peptide + (donors positive to the peptide) ([1]; Patients Summary, PD patients) | IFNg Avg SFC [1, 4] | IFNg Response Frequency [1, 4] | IFNg Total SFC [1, 4] | IFNg Peptide + [1, 5] | IFNg Response Frequency [1, 6] | IFNg Avg SFC [1, 7] | IFNg Total SFC [1, 7] | IL-g Peptide + (donors positive to the peptide) ([2]; Patients Summary, PD patients) | IL-g Avg SFC [2, 4] | IL-g Response Frequency [2, 4] | IL-g Total SFC [2, 4] | IL-g Peptide + [2, 5] | IL-g Response Frequency [2, 6] | IL-g Avg SFC [2, 7] | IL-g Total SFC [2, 7] | epitope identified by deconvolution of T cell response, in words [3]
3521.0077 (KTKEGVLYVGSKTKK; listed as Homo sapiens) | 1 | 5 | 701 SFC | 63% | 3505 SFC | 2 | 100% | 1510 SFC | 3020 SFC | 6 | 595 SFC | 75% | 3565 SFC | 2 | 100% | 3907 SFC | 1814 SFC | 
3521.0078 (YVGSKTKKGVVHGVA; listed as Homo sapiens) | 0 | 1 | 474 SFC | 17% | 474 SFC |  |  |  |  | 1 | 93 SFC | 17% | 93 SFC |  |  |  |  | 
3521.0079 (KGVVHGVATVAEKTK; listed as Homo sapiens) | 1 | 0 |  | 0% | 0 SFC | 0 | 0% |  | 0 SFC | 0 |  | 0% | 0 SFC | 1 | 50% | 284 SFC | 284 SFC | 
3521.0084 (YVGSKTKEGVVHGVA; listed as Homo sapiens) | 0 | 0 |  | 0% | 0 SFC |  |  |  |  | 0 |  | 0% | 0 SFC |  |  |  |  | 
3521.0085 (EGVVHGVATVAEKTK; listed as Homo sapiens) | 1 | 0 |  | 0% | 0 SFC | 0 | 0% |  | 0 SFC | 0 |  | 0% | 0 SFC | 1 | 50% | 80 SFC | 80 SFC | 
3521.0086 (ATVAEKTKEQVTNVG; listed as Homo sapiens) | 1 | 0 |  | 0% | 0 SFC | 0 | 0% |  | 0 SFC | 0 |  | 0% | 0 SFC | 0 | 0% |  | 0 SFC | 
GVLYVGSKTK (listed as Homo sapiens) |  |  |  |  |  |  |  |  |  |  |  |  |  |  |  |  |  | antigenic
VLYVGSKTK (listed as Homo sapiens) |  |  |  |  |  |  |  |  |  |  |  |  |  |  |  |  |  | antigenic
